“Also recorded” adds a separate entry of the source. Marks after values point to notes of the source that are not given here.
How the values were obtained:
[1] = tested on: withdrawal threshold on hot plate at 52° C.; experiment: Mouse hotplate test of anti-nociceptive potential; assay type: in vivo; conditions: for Withdrawal threshold (sec) Mean +/− SEM: hot plate 52° C.
Protocol: Mice underwent a minimum habituation period of 7 days prior to study commencement. Naïve mice were acclimatised to the procedure room in their home cages, with food and water available ad libitum.
Animals were treated with either treatment vehicle, (−)-cis-THC at 1, 15, 50, 100, 125 and 150 mg/kg at 10 ml/kg i.p. or Morphine 10 mg/kg or Morphine vehicle (Saline) at 10 ml/kg i.p.
Animals were placed onto a hot plate set at 52° C. and time to withdrawal threshold (first response of lifting, licking front or hind paws or trying to escape) was taken at 1-hour post treatment, or at 0.5 hour after the positive control.
Animals were culled by a schedule 1 method, immediately after the measurement.
Data were analysed by comparing withdrawal thresholds back to Vehicle treated group

[2] = tested on: tonic hind limb convulsions; experiment: Mouse supramaximal electroshock seizure (MES) model of generalized seizures; assay type: in vivo
Protocol: Mice were administered MES (30 mA, rectangular current: 0.6 ms pulse width, 0.2 s duration, 50 Hz) via corneal electrodes connected to a constant current shock generator (Ugo Basile: type 7801) to reliably produce tonic hind limb convulsions. The number of tonic convulsions was recorded.
Sixteen mice were studied per group. The test was performed blind.
The test substance, (−)-cis-THC, was evaluated at 4 doses (10, 50, 100 and 150 mg/kg), administered i.p. 60 minutes before MES, and compared with a vehicle control group (administered under the same experimental conditions).
Valproate (positive control) was administered at 250 mg/kg i.p. 30 minutes before MES, was used as a reference substance and was compared with a vehicle group (administered i.p. 60 minutes before MES).
Data was analysed by comparing treated groups with the appropriate vehicle control using 2-tailed Fisher's Exact Probability tests (p<0.05 considered significant).

[3] = depending on the assay; cited from earlier work

CCCCCc1cc(O)c2c(c1)OC(C)(C)[C@H]1CCC(C)=C[C@@H]21 (relative stereo) [(−)-cis-THC, (−)-cis-delta-9-tetrahydrocannabinol]
Withdrawal threshold (sec) Mean +/− SEM ([1]; 1 mg/kg I.P., 1-hour post treatment): 10.99 ± 0.92 s
Withdrawal threshold (sec) Mean +/− SEM ([1]; 15 mg/kg I.P., 1-hour post treatment): 10.22 ± 0.94 s
Withdrawal threshold (sec) Mean +/− SEM ([1]; 50 mg/kg I.P., 1-hour post treatment): 12.68 ± 1.11 s
Withdrawal threshold (sec) Mean +/− SEM ([1]; 100 mg/kg I.P., 1-hour post treatment): 14.23 ± 1.37 s
Withdrawal threshold (sec) Mean +/− SEM ([1]; 125 mg/kg I.P., 1-hour post treatment): 15.28 ± 1.19 s
anti-nociceptive effect in the hotplate test (overall, in words) ([1]; 1 to 150 mg/kg i.p.): dose-related increase in withdrawal threshold; also recorded: significant anti-nociceptive effect
% change from vehicle in number of tonic clonic seizures after MES ([2]; 10 mg/kg I.P., pre-treatment time 60 mins): No effect
% change from vehicle in number of tonic clonic seizures after MES ([2]; 10 mg/kg I.P., pre-treatment time 60 mins, listed as (-)-cis-THC): 0.0%
% change from vehicle in number of tonic clonic seizures after MES ([2]; 50 mg/kg I.P., pre-treatment time 60 mins): 25%
% change from vehicle in number of tonic clonic seizures after MES ([2]; 50 mg/kg I.P., pre-treatment time 60 mins, listed as (-)-cis-THC): 25.0%
% change from vehicle in number of tonic clonic seizures after MES ([2]; 100 mg/kg I.P., pre-treatment time 60 mins): 6.3%
% change from vehicle in number of tonic clonic seizures after MES ([2]; 150 mg/kg I.P., pre-treatment time 60 mins): 25%
% change from vehicle in number of tonic clonic seizures after MES ([2]; 150 mg/kg I.P., pre-treatment time 60 mins, listed as (-)-cis-THC): 25.0%
anti-convulsant effect in the MES model (overall conclusion) ([2]; 10, 50, 100 and 150 mg/kg i.p.): did not produce a significant anti-convulsant effect

CCCCCc1cc(O)c2c(c1)OC(C)(C)[C@@H]1CCC(C)=C[C@@H]21 [(−)-trans-THC, (−)-trans-delta-9-tetrahydrocannabinol]
potency relative to the (+)-trans-THC isomer [3]: 6-100 times

CN1CC[C@]23c4c5ccc(O)c4O[C@H]2[C@@H](O)C=C[C@H]3[C@H]1C5 [Morphine, reference compound]
Withdrawal threshold (sec) Mean +/− SEM ([1]; 10 mg/kg I.P., 0.5 hour after treatment): 23.17 +/− 1.54 *** sec
Withdrawal threshold (sec) Mean +/− SEM ([1]; 10 mg/kg I.P., 0.5 hour after treatment, listed as morphine): significant increase

CCCC(CCC)C(=O)O [Valproate, reference compound]
% change from vehicle in number of tonic clonic seizures after MES ([2]; 250 mg/kg I.P., pre-treatment time 30 mins): 93.8%
